Experimental data published in the supplement of paper PMC3493320.

System: NCI-H295R
Assay: IC50 (antiproliferative, ATP content)
Settings: 48 h
Outline: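 Adrenocortical carcinoma cells in 1536-well plates (1500 per well, serum-free DMEM plus ITS, overnight culture) were exposed for 48 h at 37 °C, 5% CO2 to pin-transferred compounds at 8 final concentrations ranging 0.6 nM to 46 µM. ATP content was then read as CellTiter-Glo luminescence and normalised to vehicle and positive-control wells. The IC50 came from logistic curve fits, and any compound lacking a concentration response was recorded as above the top dose.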

IC50 | Compound
> 46 µM | COc1cc(/C=C/C(=O)CC(=O)/C=C/c2ccc(O)c(OC)c2)ccc1O
> 46 µM | CNC[C@H](O)c1cccc(O)c1.Cl
> 46 µM | O=C(O[C@H]1C[C@H]2CC3C[C@@H](C1)N2CC3=O)c1c[nH]c2ccccc12
> 46 µM | C=C[C@]1(C)C[C@@H](OC(=O)CSCCN(CC)CC)[C@]2(C)[C@@H]3C(=O)CC[C@@]3(CC[C@@H]2C)[C@@H](C)[C@@H]1O
> 46 µM | CCCCC(CC)COC(=O)c1ccc(N(C)C)cc1 (stereo not given)
> 46 µM | [Br-].O.C[N+]2(C1C[C@H](CC2CC1)OC(=O)C(CO)c3ccccc3)C(C)C (stereo not given)
> 46 µM | CC(=O)OCC(COC(C)=O)OC(C)=O
> 46 µM | Cc1cc(C)c(NC(=O)C[C@H](CC(=O)[O][Na])c2cccc3ccccc23)c(C(=O)N2CCC3(CCCC3)CC2)c1
> 46 µM | O=C1N=C2SCCN2C(=O)C1Cc1ccc(Cl)cc1 (stereo not given)
> 46 µM | CCN1CCCC1=O
> 46 µM | CCCNC(C)(C)COC(=O)c1ccccc1.Cl
> 46 µM | CC=CC=CC(=O)O
> 46 µM | C[C@@H]1C[C@H]2[C@@H]3C[C@H](F)C4=CC(=O)C=C[C@]4(C)[C@@]3(F)[C@@H](O)C[C@]2(C)[C@@]1(O)C(=O)CO
> 46 µM | CC(O)CN(C)C (stereo not given)
> 46 µM | O=C(O)[C@@H](S)[C@H](S)C(=O)O
> 46 µM | O=C(O)COc1ccc(C(=O)c2cccs2)c(Cl)c1Cl
> 46 µM | CCN(CC)C(=O)c1cccnc1
> 46 µM | CCCC(=O)Nc1c(I)cc(I)c(CC(CC)C(=O)[O-])c1I.[Na+] (stereo not given)
> 46 µM | CC(=O)O.CNC(=N)NCCC[C@H](N)C(=O)O
> 46 µM | CC(=O)Nc1ccc(OC(=O)c2ccccc2O)cc1
> 46 µM | COC(=O)c1cccnc1

Continued, molecule first:

Compound | IC50
Clc1ccc2c(c1)C(N1CCNCC1)=Nc1ccccc1O2 | > 46 µM
O=Cc1ccco1 | > 46 µM
O=[N+]([O-])c1cc([As](=O)(O)O)ccc1O | > 46 µM
NCCc1cnc[nH]1 | > 46 µM
CN1CCC(=C2c3ccccc3C=Cc3ccccc32)CC1 | > 46 µM
COc1cc2nc(N3CCN(C(=O)C4CCCO4)CC3)nc(N)c2cc1OC.Cl (stereo not given) | > 46 µM
Oc1cc(Cl)ccc1Oc1ccc(Cl)cc1Cl | > 46 µM
O=C([O-])c1cc2cc(Cc3cccnc3)ccc2o1.[Na+] | > 46 µM
FC1(F)C(F)(F)C(F)(F)C2(F)C(F)(F)C(F)(F)C(F)(F)C(F)(F)C2(F)C1(F)F (stereo not given) | > 46 µM
N/1C(N(\C=C\1)C)=S | > 46 µM
CCOCC(O)COc1ccc(NC(=O)CC[S+](C)C)cc1.Cc1ccc(S(=O)(=O)[O-])cc1 (stereo not given) | > 46 µM
CCOC(=O)c1ccccc1C(=O)OCC | > 46 µM
FC(F)(F)C(F)(F)C(F)(F)C(F)(F)C(F)(F)C(F)(F)C(F)(F)C(F)(F)Br | > 46 µM
CCC1(c2ccccc2)C(=O)N(COC)C(=O)N(COC)C1=O | > 46 µM
NC(=S)NS(=O)(=O)c1ccc(N)cc1 | > 46 µM
COc1ccc(CCN(C)CCCC(C#N)(c2cc(OC)c(OC)c(OC)c2)C(C)C)cc1OC.Cl (stereo not given) | > 46 µM
CC(C)NC(C)Cc1ccc(I)cc1.Cl (stereo not given) | > 46 µM
CCn1ccnc1CC1COc2ccccc2O1 (stereo not given) | > 46 µM
CN1C(=O)[C@@H](NC(=O)c2cc3ccccc3[nH]2)N=C(c2ccccc2)c2ccccc21 | > 46 µM
O=C1OC(c2ccc(O)c(S(=O)(=O)[O-])c2)(c2ccc(O)c(S(=O)(=O)[O-])c2)c2c(Br)c(Br)c(Br)c(Br)c21.[Na+].[Na+] | > 46 µM
FC(F)(F)C(Cl)Br (stereo not given) | > 46 µM
NC[C@H]1O[C@H](O[C@H]2[C@H](O)[C@@H](O[C@H]3O[C@H](CO)[C@@H](O)[C@H](N)[C@H]3O)[C@H](N)C[C@@H]2N)[C@H](O)[C@@H](O)[C@@H]1O.O=S(=O)(O)O | > 46 µM
CCN(CC)C(=O)N[C@@H]1C=C2c3cccc4[nH]cc(c34)C[C@@H]2N(C)C1 | > 46 µM
OCc1ccccn1 | > 46 µM
